Reference: patent US8653075B2, “Therapeutic methods employing substituted piperidines which are CCR3 antagonists” (Boehringer Ingelheim International GmbH, priority 2009, dated 2014)

Target: T1, human chemokine receptor CCR3 (Homo sapiens, UniProt P51677)
T1 construct: expressed in transfected cells; host or cells: K562 cell line (hCCR3-C1 cells), membrane preparation
T1 sequence (P51677 1-355): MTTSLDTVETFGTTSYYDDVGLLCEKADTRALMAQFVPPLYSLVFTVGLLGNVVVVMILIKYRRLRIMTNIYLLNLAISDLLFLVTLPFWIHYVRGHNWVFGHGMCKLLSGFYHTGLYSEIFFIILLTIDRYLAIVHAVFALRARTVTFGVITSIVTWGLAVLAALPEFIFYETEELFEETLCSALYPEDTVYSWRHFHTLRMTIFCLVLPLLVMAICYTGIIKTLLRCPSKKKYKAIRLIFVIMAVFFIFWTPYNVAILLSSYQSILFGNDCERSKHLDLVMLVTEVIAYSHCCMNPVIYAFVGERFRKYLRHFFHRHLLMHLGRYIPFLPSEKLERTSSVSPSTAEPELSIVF
Assay: CCR3 receptor binding assay (SPA, 125I-eotaxin-1 displacement, hCCR3-C1 K562 cell membranes)
Conditions: human Eotaxin-1 at human CCR3-Rezeptor; for inhibition at 1 µM: read-out: CCR3 % inh @ 1 μM; for Ki: dose range 0.1 to 10000 nM
Description: The CCR3 receptor binding test is based on a K562 cell line (leukemia myelogenic blast cells) transfected with the human chemokine receptor CCR3 (hCCR3-C1 cells). The cell membranes were prepared by disrupting the hCCR3-C1 cells by […]. The preparation was centrifuged at 400 g 4° C. for 30 min. The supernatant was transferred into fresh tubes followed by a second centrifugation at 48000 g, 4° C. for 1 h. The membranes were re-suspended in the SPA incubation buffer (25 mM HEPES, 25 mM MgCl2 6×H2O, 1 mM CaCl2 2×H2O) without bovine serum albumin and homogenized by passing through a single use needle (Terumo, 23Gx1″). The membranes were stored in aliquots at −80° C.
The CCR3 receptor binding assay was performed in a Scintillation Proximity Assay (SPA) design with the radioligand recombinant human ^125Iodine-eotaxin-1. Cell membranes of hCCR3 C1 cells were again homogenized by passing through a single use needle (Terumo, 23Gx1″) and diluted in SPA incubation buffer in suitable concentrations (0.5-10 μg protein/well) in 96 well microtiter plates (1450-514, Perkin Elmer). The SPA assay was set up in the SPA incubation buffer with a final volume of 200 μl and final concentration of 25 mM HEPES, 25 mM MgCl2 6×H2O, 1 mM CaCl2 2×H2O and 0.1% bovine serum albumin. The SPA assay mixture contained 60 μl of the membrane suspension, 80 μl of Wheat Germ Agglutinin coated PVT beads (organic scintillator, GE Healthcare, RPNQ-0001) 0.2 mg/well), 40 μl of recombinant human ^125Jodine-eotaxin-1 (Biotrend), diluted in SPA buffer to a final concentration of 30.000 dpm per well, and 20 μl of the test compound (dissolved in DMSO dilutions). The SPA assay mixture was incubated for 2 h at room temperature. Bound radioactivity was determined with a scintillation counter (Micro Beta “Trilux”, Wallac). Included were controls for total binding (no displacer added, Bo) and non-specific binding (NSB) by adding unlabelled recombinant human Eotaxin-1 (Biotrend, Cat #300-21) or a reference compound.
Determination of the affinity of a test compound was calculated by subtraction of the non-specific binding (NSB) from the total binding (Bo) or the binding in the presence of the test compound (B) at a given compound concentration. […] The Bo-NSB value was set to 0% inhibition.
% inhibition and Ki values are (human Eotaxin-1 at human CCR3-Rezeptor): […]

| Structure (SMILES) | inhibition at 1 µM (1 μM test compound) [%] | Ki [nM] | CCR3 % inh @ 1 μM (1 μM test compound, 1 µM) [%] |
| --- | --- | --- | --- |
| CCCCS(=O)(=O)NC1CCCN(C(=O)[C@@H]2CCC(=O)N2C2CCN(Cc3ccc(Cl)c(C)c3)CC2)C1 (some centres unmarked) [Example 49] | 41 | 1180 |  |
| COc1cc(OC)nc(CNC(=O)[C@@H]2CCC(=O)N2C2CCN(Cc3ccc(Cl)c(C)c3)CC2)n1 [Example 50] | 41 | 1290 |  |
| Cc1nc(C2(NC(=O)[C@@H]3CCC(=O)N3C3CCN(Cc4ccc(Cl)c(C)c4)CC3)CCCC2)no1 [Example 51] | 30 | 1620 |  |
| Cc1cc(CN2CCC(N3C(=O)CC[C@H]3C(=O)NCc3cc(C(C)C)no3)CC2)ccc1Cl [Example 52] | 28 | 1750 |  |
| Cc1cc(CN2CCC(N3C(=O)CC[C@H]3C(=O)NC3CCN(S(C)(=O)=O)C3)CC2)ccc1Cl (some centres unmarked) [Example 53] | 33 | 2010 |  |
| Cc1cc(CN2CCC(N3C(=O)CC[C@@H]3C(=O)N3CCc4cccc(Br)c4C3)CC2)ccc1Cl [Example 54] | 90 | 89 |  |
| COc1cccc2c1CN(C(=O)[C@@H]1CCC(=O)N1C1CCN(Cc3ccc(Cl)c(C)c3)CC1)CC2 [Example 55] | 78 | 235 |  |
| Cc1cc(CN2CCC(N3C(=O)CC[C@H]3C(=O)N3CCc4cccc(C(F)(F)F)c4C3)CC2)ccc1Cl [Example 56] | 76 | 254 |  |
| Cc1cc(CN2CCC(N3C(=O)CC[C@H]3C(=O)N3CCc4c(F)ccc(F)c4C3)CC2)ccc1Cl [Example 57] | 74 | 302 |  |
| Cc1cc(CN2C3CCC2CC(N2C(=O)CC[C@@H]2C(=O)Nc2cccc(N(CC(=O)N4CCC4)S(C)(=O)=O)c2)C3)ccc1Cl (some centres unmarked) [Example 75] | 97 | 30 |  |
| Cc1cc(CN2C3CCC2CC(N2C(=O)CC[C@@H]2C(=O)Nc2cccc(N(CC(=O)N(C)C)S(C)(=O)=O)c2)C3)ccc1Cl (some centres unmarked) [Example 76] | 97 | 37 |  |
| Cc1cc(CN2C3CCC2CC(N2C(=O)CC[C@@H]2C(=O)Nc2cccc(-c4nnnn4C)c2)C3)ccc1Cl (some centres unmarked) [Example 77] | 96 | 38 |  |
| Cc1cc(CN2C3CCC2CC(N2C(=O)CC[C@@H]2C(=O)Nc2cccc(N(CC(=O)N(C)C)S(=O)(=O)C4CC4)c2)C3)ccc1Cl (some centres unmarked) [Example 78] | 94 | 50 |  |
| CCS(=O)(=O)N(CC(=O)N(C)C)c1cccc(NC(=O)[C@H]2CCC(=O)N2C2CC3CCC(C2)N3Cc2ccc(Cl)c(C)c2)c1 (some centres unmarked) [Example 79] | 91 | 52 |  |
| CCNS(=O)(=O)c1cccc(NC(=O)[C@H]2CCC(=O)N2C2CC3CCC(C2)N3Cc2ccc(Cl)c(C)c2)c1 (some centres unmarked) [Example 80] | 95 | 55 |  |
| Cc1cc(CN2C3CCC2CC(N2C(=O)CC[C@@H]2C(=O)Nc2cccc(C(N)=O)c2)C3)ccc1Cl (some centres unmarked) [Example 81] | 89 | 111 |  |
| CNC(=O)c1cccc(NC(=O)[C@H]2CCC(=O)N2C2CC3CCC(C2)N3Cc2ccc(Cl)c(C)c2)c1 (some centres unmarked) [Example 84] | 77 | 232 |  |
| Cc1cc(CN2C3CCC2CC(N2C(=O)CC[C@@H]2C(=O)Nc2cc(C4CC4)nn2C)C3)ccc1Cl (some centres unmarked) [Example 85] | 68 | 350 |  |
| Cc1nccc(-c2cccc(NC(=O)[C@H]3CCC(=O)N3C3CC4CCC(C3)N4Cc3ccc(Cl)c(C)c3)c2)n1 (some centres unmarked) [Example 86] | 65 | 419 |  |

Continued, values first:

| inhibition at 1 µM (1 μM test compound) [%] | Ki [nM] | CCR3 % inh @ 1 μM (1 μM test compound, 1 µM) [%] | Structure (SMILES) |
| --- | --- | --- | --- |
| 76 | 221 |  | Cc1cc(CN2CCC(N3C(=O)CC[C@H]3C(=O)N3CCc4cccc(F)c4C3)CC2)ccc1Cl [Example 58] |
| 66 | 402 |  | Cc1cc(CN2CCC(N3C(=O)CC[C@@H]3C(=O)N3CCc4c(F)cccc4C3)CC2)ccc1Cl [Example 59] |
| 65 | 430 |  | Cc1cc(CN2CCC(N3C(=O)CC[C@H]3C(=O)NC3CCN(c4ccccn4)CC3)CC2)ccc1Cl [Example 60] |
| 57 | 492 |  | Cc1cc(CN2CCC(N3C(=O)CC[C@H]3C(=O)N3Cc4ccccc4C(C)(C)C3)CC2)ccc1Cl [Example 61] |
| 63 | 507 |  | Cc1cc(CN2CCC(N3C(=O)CC[C@H]3C(=O)N3CCc4cc(F)ccc4C3)CC2)ccc1Cl [Example 62] |
| 60 | 518 |  | Cc1cc(CN2CCC(N3C(=O)CC[C@@H]3C(=O)N3Cc4ccccc4C3)CC2)ccc1Cl [Example 63] |
| 60 | 545 |  | Cc1cc(CN2CCC(N3C(=O)CC[C@@H]3C(=O)Nc3ccc4c(c3)CC(N(C)C)C4)CC2)ccc1Cl (some centres unmarked) [Example 64] |
| 57 | 602 |  | Cc1cc(CN2CCC(N3C(=O)CC[C@@H]3C(=O)N3CCc4c(cccc4C(F)(F)F)C3)CC2)ccc1Cl [Example 65] |
| 81 | 658 |  | Cc1cc(CN2CCC(N3C(=O)CC[C@H]3C(=O)Nc3cccc(Cc4ccncc4)c3)CC2)ccc1Cl [Example 66] |
| 52 | 700 |  | COCC(NC(=O)C1CCC(=O)N1C1CCN(Cc2ccc(Cl)c(C)c2)CC1)c1nc2ccc(Cl)cc2[nH]1 (centres unmarked) [Example 67] |
| 48 | 715 |  | Cc1cc(CN2CCC(N3C(=O)CC[C@@H]3C(=O)NCc3cccc4[nH]ccc34)CC2)ccc1Cl [Example 68] |
|  |  | 55 | Cc1cc(CN2CCC(N3C(=O)CC[C@H]3C(=O)NCc3ccnn3C)CC2)ccc1Cl [Example 69] |
| 46 | 791 |  | Cc1cc(CN2CCC(N3C(=O)CC[C@H]3C(=O)NCc3ccc(Cl)nc3C)CC2)ccc1Cl [Example 70] |
| 49 | 810 |  | COc1cccc2c1CCN(C(=O)[C@@H]1CCC(=O)N1C1CCN(Cc3ccc(Cl)c(C)c3)CC1)C2 [Example 71] |
| 48 | 875 |  | COc1ccc2c(c1)CN(C(=O)[C@@H]1CCC(=O)N1C1CCN(Cc3ccc(Cl)c(C)c3)CC1)CC2 [Example 72] |
| 48 | 922 |  | Cc1cc(CN2CCC(N3C(=O)CC[C@H]3C(=O)N3CCc4ccc(F)cc4C3)CC2)ccc1Cl [Example 73] |
| 46 | 927 |  | Cc1cc(CN2CCC(N3C(=O)CC[C@@H]3C(=O)N3CCc4ccc([N+](=O)[O-])cc4C3)CC2)ccc1Cl [Example 74] |
| 98 | 18 |  | CCn1cc(NC(=O)[C@H]2CCC(=O)N2C2CCN(Cc3ccc(Cl)c(C)c3)CC2)cc1C(=O)OC [Example 91] |
| 95 | 29 |  | CCOC(=O)c1cc(NC(=O)[C@H]2CCC(=O)N2C2CCN(Cc3ccc(Cl)c(C)c3)CC2)no1 [Example 93] |
| 94 | 52 |  | COC(=O)c1cc(NC(=O)[C@H]2CCC(=O)N2C2CCN(Cc3ccc(Cl)c(C)c3)CC2)cn1C [Example 94] |
| 94 | 40 |  | CCOC(=O)c1cc(NC(=O)[C@H]2CCC(=O)N2C2CCN(Cc3ccc(Cl)c(C)c3)CC2)nn1C [Example 95] |
| 51 | 670 |  | COC(=O)c1ccc2c(c1)CCN(C(=O)[C@H]1CCC(=O)N1C1CCN(Cc3ccc(Cl)c(C)c3)CC1)C2 [Example 96] |
| 50 | 669 |  | COC(=O)CC(NC(=O)[C@@H]1CCC(=O)N1C1CCN(Cc2ccc(Cl)c(C)c2)CC1)c1ccccn1 (some centres unmarked) [Example 97] |
